Data published in BindingDB's records for doi:10.1016/j.bmcl.2009.08.014 (Wuxi Pharmatech, 2009).

assay: Antagonist activity at CXCR2 expressed in CHO cells assessed as inhibition of IL-8-induced chemotaxis

Point of comparison: CCN(Cc1ccc(F)cc1)Nc1c(Nc2cccc(C(=O)N(C)C)c2O)c(=O)c1=O [3-(2-(2-ethyl-2-(4-fluorobenzyl)hydrazinyl)-3,4-dioxocyclobut-1-enylamino)-2-hydroxy-N,N-dimethylbenzamide], IC50 6340 nM. Against it:
- CCN(Nc1c(Nc2cccc(C(=O)N(C)C)c2O)c(=O)c1=O)C(C)=O [3-(2-(2-acetyl-2-ethylhydrazinyl)-3,4-dioxocyclobut-1-enylamino)-2-hydroxy-N,N-dimethylbenzamide] — 5.1-fold lower, 1250 nM
- CCN(Nc1c(Nc2cccc(C(=O)N(C)C)c2O)c(=O)c1=O)C(=O)c1ccc(F)cc1 [3-(2-(2-ethyl-2-(4-fluorobenzoyl)hydrazinyl)-3,4-dioxocyclobut-1-enylamino)-2-hydroxy-N,N-dimethylbenzamide] — 7.5-fold lower, 840 nM
- CCN(Nc1c(Nc2cccc(C(=O)N(C)C)c2O)c(=O)c1=O)c1ccccn1 [3-(2-(2-ethyl-2-(pyridin-2-yl)hydrazinyl)-3,4-dioxocyclobut-1-enylamino)-2-hydroxy-N,N-dimethylbenzamide] — 85-fold lower, 75 nM
- CCN(Nc1c(Nc2cccc(C(=O)N(C)C)c2O)c(=O)c1=O)c1ccccc1 [3-(2-(2-ethyl-2-phenylhydrazinyl)-3,4-dioxocyclobut-1-enylamino)-2-hydroxy-N,N-dimethylbenzamide] — 120-fold lower, 54 nM
- CCN(Nc1c(Nc2cccc(C(=O)N(C)C)c2O)c(=O)c1=O)c1ccc(OC)cc1 [3-(2-(2-ethyl-2-(4-methoxyphenyl)hydrazinyl)-3,4-dioxocyclobut-1-enylamino)-2-hydroxy-N,N-dimethylbenzamide] — 63-fold lower, 100 nM
- CCN(Nc1c(Nc2cccc(C(=O)N(C)C)c2O)c(=O)c1=O)c1ccc(F)cc1 [3-(2-(2-ethyl-2-(4-fluorophenyl)hydrazinyl)-3,4-dioxocyclobut-1-enylamino)-2-hydroxy-N,N-dimethylbenzamide] — 7.5-fold lower, 840 nM
- CCN(CC)Nc1c(Nc2cccc(C(=O)N(C)C)c2O)c(=O)c1=O [3-(2-(2,2-diethylhydrazinyl)-3,4-dioxocyclobut-1-enylamino)-2-hydroxy-N,N-dimethylbenzamide] — 140-fold lower, 46 nM
